Results on two molecules are retold here after patent US20020128438A1, “DNA cassette for the production of secretable recombinant trimeric TRAIL proteins, tetracycline/ doxycycline-inducible adeno-associated virus vector, their combination and use in gene therapy” (priority 2000, published 2002).

*1 amine or outer side, *2 acyl side, *3 side chain or, on linkers, in order; H or OH if unused. Where a SMILES comes first, the peptide text is derived from it. Bridges are numbered along the chain shown (N, C = ends). Roman numbers before positions name the chains, in order. [ ]: non-standard residue; d: D form. Actinocin(9to1) = Cc1c2oc3c(C)ccc(C(=O)[*:1])c3nc-2c(C(=O)[*:2])c(N)c1=O; NMeV = CN[C@H](C(=O)O)C(C)C; Sar = CNCC(=O)O

Series [1] has as its system various cancer cell lines.
The test system of another series is monkey. Particulars: cited from earlier work.
In the next series the test system is mice. The note with it: systemic delivery; cited from earlier work.

With `Cc1c2oc3c(C)ccc(C(=O)N[C@@H]4C(=O)N[C@H](C(C)C)C(=O)N5CCC[C@H]5C(=O)N(C)CC(=O)N(C)[C@@H](C(C)C)C(=O)O[C@@H]4C)c3nc-2c(C(=O)N[C@@H]2C(=O)N[C@H](C(C)C)C(=O)N3CCC[C@H]3C(=O)N(C)CC(=O)N(C)[C@@H](C(C)C)C(=O)O[C@@H]2C)c(N)c1=O` [ActD, Actinomycin D] (I: T[dV]P[Sar][NMeV] / II: T[dV]P[Sar][NMeV]; ester I:1-I:C, II:1-II:C; linker I:N-II:N via Actinocin(9to1)), the “concentration at which enhancing activity of ActD was obtained” value in series [1] (enhancement of TRAIL-induced apoptosis) came out at 100 ng/mL. Further, in series [1] (various cancer cell lines), the “effect of ActD on TRAIL-induced apoptosis” value was “greatly enhanced”.
As to “TRAIL: TNF family member, type II transmembrane apoptosis-inducing ligand”, the cytotoxicity in monkey result in the series with monkey is on record as “no detectable cytotoxicity”. Further, the cytotoxicity in mice result in the series on mice is recorded as “no detectable cytotoxicity”.
